The subject of experiment [1] is Aβ 40 in conditioned medium of cells stably expressing Amyloid Precursor Protein (APP). Description: In vitro BACE cell-based assay (Aβ 40 sandwich ELISA). The following applies: Homo sapiens, HEK293; HEK cell; average IC50. As for the experimental part: In Vitro BACE Cell-Based Assay
The cell-based assay measures inhibition or reduction of […] in conditioned medium of test compound treated cells expressing amyloid precursor protein.
Cells stably expressing Amyloid Precursor Protein (APP) were plated at a density of 40K cells/well in 96 well plates (Costar). The cells were cultivated for 24 hours at 37° C. and 5% CO2 in DMEM supplemented with 10% FBS. The test compounds were then added to cells in 10-point dose response concentrations with the starting concentration being either 100 μM or 10 μM. The compounds were diluted from stock solutions in DMSO and the final DMSO concentration of the test compounds on cells was 0.1%. After 24 h of incubation with the test compounds the supernatant conditioned media was collected and the Aβ 40 levels were determined using a sandwich ELISA. The IC50 of the compound was calculated from the percent of control or percent inhibition of Aβ 40 as a function of the concentration of the test compound.
The sandwich ELISA to detect Aβ 40 was performed in 96 well microtiter plates, which were pre-treated with goat anti-rabbit IgG (Pierce). The capture and detecting antibody pair that were used to detect Aβ 40 from cell supernatants were affinity purified pAb40 (Biosource) and biotinylated 6E10 (Signet Labs Inc.), respectively. The optimal concentration for the pAb40 antibody was 3 μg/ml in Superblock/TBS (Pierce) that was supplemented with 0.05% Tween 20 (Sigma). Optimal concentration for the detection antibody 6E10-biotinylated was 0.5 μg/ml in Superblock/TBS (Pierce) that had been supplemented with 2% normal goat serum and 2% normal mouse serum.
Cellular supernatants were incubated with the capture antibody for 3 h at 4° C., followed by 3 wash steps in TBS-tween (0.05%). The detecting antibody incubation was for 2 h at 4° C., again followed by the wash steps as described previously. The final readout of the ELISA is Time-Resolved Fluorescence (counts per minute) using Delfia reagents Streptavidin-Europium and Enhancement solutions (Perkin Elmer) and the Victor 2 multilabel counter (Perkin Elmer).
For orientation: In an ELISA, binding on a coated surface is turned into a signal by an enzyme label.

The next experiment deals with Cathepsin D (Cat D) (Homo sapiens, UniProt P07339). The experiment can be described thus: In vitro enzymatic Cathepsin D (Cat D) FRET assay. Format: biochemical. On the procedure: In Vitro Enzymatic Cathepsin D (Cat D) FRET (Fluorescence Resonance Energy Transfer) Assay
Sequence of Cathepsin D (Cat D) (P07339 65-412, species assumed): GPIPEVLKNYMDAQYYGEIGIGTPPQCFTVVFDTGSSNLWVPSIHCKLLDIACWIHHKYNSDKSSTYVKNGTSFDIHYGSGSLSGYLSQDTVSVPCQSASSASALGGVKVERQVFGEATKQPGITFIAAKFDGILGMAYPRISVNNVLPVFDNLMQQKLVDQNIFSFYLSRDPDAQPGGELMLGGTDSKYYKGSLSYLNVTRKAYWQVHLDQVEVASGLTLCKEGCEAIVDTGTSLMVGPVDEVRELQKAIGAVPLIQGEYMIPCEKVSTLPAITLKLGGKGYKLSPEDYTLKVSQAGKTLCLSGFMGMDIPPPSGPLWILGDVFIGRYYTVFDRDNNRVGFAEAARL
Recombinant Cat D was expressed in CHO cells. The assay buffer for CathepsinD is 0.05 M citrate pH 3.5, 10% DMSO final, 5 mM CHAPS. The Cat D enzyme (9 nM) is pre-incubated for one hour with inhibitors, typically in about 1 uL of DMSO according to a serial dilution, is added thereto. The assays are effectively started by the addition of different FRET substrates (20 nM for Cat D) and the combination is incubated for one hour. The FRET assay is terminated with by addition of Tris buffer, which raises the pH to neutrality, and the fluorescence is determined. The FRET substrate is a peptide with commercially available fluorophore and quencher, on opposite sides of the BACE cleavage site. The Cat D substrate peptide sequence is based on sequence #1 of Table 1 from Gulnik et al. FEBS Letters v413 p 379-384 1997. Proteolytic cleavage of the FRET substrate releases quenching of fluorescence (Cat D excitation 500 nm and emission 580 nm). […]
See, for instance, examples 8, 12, 15, 16, 18, 21-23, 24, 25, 26, 29, 30, 32, 41-42, 45, 53, 54, 57, 63, 67-69, 72-74, 76, 79-81, 83 & 84 (to point to just a few; referring to data in Table 2). […] See, for instance, examples 8, 12, 15, 18, 21-23, 25, 29, 30, 32, 41-42, 45, 54, 57, 67-68, 72-73, 76, 80-81, 84, 86, 91-92 & 100 (to point out those from compound examples 1-100; and with reference to data in Table 2).

The target of experiment [2] is Beta Secretase enzyme (BACE) (Homo sapiens, UniProt P56817). Description: In vitro enzymatic BACE FRET assay. Format: biochemical. The following applies: average IC50; read-out: BACE1 FRET assay IC50. As for the experimental part: In Vitro Enzymatic BACE FRET (Fluorescence Resonance Energy Transfer) Assay (Enzyme Assay Data in the Example Table I)
Sequence of Beta Secretase enzyme (BACE) (P56817 46-501): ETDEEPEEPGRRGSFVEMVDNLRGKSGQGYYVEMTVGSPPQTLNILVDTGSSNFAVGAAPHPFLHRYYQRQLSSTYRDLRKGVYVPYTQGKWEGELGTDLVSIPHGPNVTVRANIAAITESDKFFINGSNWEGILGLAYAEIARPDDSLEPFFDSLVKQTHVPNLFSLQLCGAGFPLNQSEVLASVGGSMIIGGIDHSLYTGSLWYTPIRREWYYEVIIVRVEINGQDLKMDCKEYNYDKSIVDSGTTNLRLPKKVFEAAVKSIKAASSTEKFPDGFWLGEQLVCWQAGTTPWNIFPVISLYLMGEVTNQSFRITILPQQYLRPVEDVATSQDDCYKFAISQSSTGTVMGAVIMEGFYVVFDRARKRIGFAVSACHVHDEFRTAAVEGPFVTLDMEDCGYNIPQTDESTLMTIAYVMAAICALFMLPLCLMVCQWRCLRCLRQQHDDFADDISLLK
The assay buffer used in this screen is 0.05 M acetate, pH 4.2, 10% DMSO final, 100 uM genapol (which is a nonionic detergent, below its Critical Micelle Concentration). The Beta Secretase enzyme (0.2 nM) is pre-incubated for one hour with inhibitors, typically in about 1 uL of DMSO according to a serial dilution, are added thereto. This assay is effectively started by the addition of FRET substrate (50 nM) and the combination is incubated for one hour. The FRET assay is terminated with by addition of Tris buffer, which raises the pH to neutrality, and the fluorescence is determined. The FRET substrate is a peptide with commercially available fluorophore and quencher, on opposite sides of the BACE cleavage site. Proteolytic cleavage of the FRET substrate releases quenching of fluorescence (excitation 488 nm and […]).

Setting [3] is: text summary referring to data in Table 2.

In general, IC50 refers to the concentration that gives 50% inhibition.

SMILES strings stand for the structures. Read-outs that look alike come from different tables or passages of the source.

Turning to `CC1(C)C(N)=N[C@]2(C)c3cc(Nc4nccc5cc(Cl)cnc45)cnc3OCC[C@H]2S1(=O)=O` [Example 19, (4aR,11bR)-N^~10^~-(3-chloro-1,7-naphthyridin-8-yl)-3,3,11b-trimethyl-4a,5,6,11b-tetrahydro-3H-pyrido[3′,2′:6,7]oxepino[4,5-b][1,4]thiazine-2,10-diamine4,4-dioxide], the figures for the IC50 (in experiment [1]; at Cathepsin D (Cat D) (read-out: CatD IC50); in experiment [2]) were 0.019 µM, 263 µM and 0.003 µM, respectively.
As to `Cc1cc(Cl)cnc1C(=O)Nc1cnc2c(c1)[C@@]1(C)N=C(N)C(C)(C)S(=O)(=O)[C@H]1CCO2` [Example 20, N-((4aS,11bR)-2-amino-3,3,11b-trimethyl-4,4-dioxido-4a,5,6,11b-tetrahydro-3H-pyrido[3′,2′:6,7]oxepino[4,5-b][1,4]thiazin-10-yl)-5-chloro-3-methyl-2-pyridinecarboxamide], the IC50 in experiment [1] was 0.022 µM; at Cathepsin D (Cat D) (read-out: CatD IC50) it was 377 µM; in experiment [2] it was 0.019 µM.
For the compound `Cc1cc(C#N)cnc1C(=O)Nc1cnc2c(c1)[C@@]1(C)N=C(N)C(C)(C)S(=O)(=O)[C@H]1CCO2` [Example 21, N-((4aS,11bR)-2-amino-3,3,11b-trimethyl-4,4-dioxido-4a,5,6,11b-tetrahydro-3H-pyrido[3′,2′:6,7]oxepino[4,5-b][1,4]thiazin-10-yl)-5-cyano-3-methyl-2-pyridinecarboxamide], the 50% inhibitory concentration (IC50) worked out at 0.026 µM in experiment [1], 1420 µM at Cathepsin D (Cat D) (read-out: CatD IC50) and 0.007 µM in experiment [2].
On to `COc1cnc(C(=O)Nc2ccc3c(c2)[C@@]2(C)N=C(N)C(C)(C)S(=O)(=O)[C@@H]2CCO3)c(C)n1` [Example 22, N-((4aR,11bR)-2-amino-3,3,11b-trimethyl-4,4-dioxido-4a,5,6,11b-tetrahydro-3H-[1]benzoxepino[4,5-b][1,4]thiazin-10-yl)-5-methoxy-3-methyl-2-pyrazinecarboxamide], for which the IC50 came to 0.007 µM in experiment [1], 1240 µM on Cathepsin D (Cat D) (read-out: CatD IC50) and 0.017 µM in experiment [2].
For the compound `Cc1nc(OCC(F)(F)F)cnc1C(=O)Nc1ccc2c(c1)[C@@]1(C)N=C(N)C(C)(C)S(=O)(=O)[C@@H]1CCO2` [Example 23, N-((4aR,11bR)-2-amino-3,3,11b-trimethyl-4,4-dioxido-4a,5,6,11b-tetrahydro-3H-[1]benzoxepino[4,5-b][1,4]thiazin-10-yl)-3-methyl-5-(2,2,2-trifluoroethoxy)-2-pyrazinecarboxamide], the IC50 in experiment [1] worked out at 0.01 µM; on Cathepsin D (Cat D) (read-out: CatD IC50) it was 1400 µM; in experiment [2], 0.003 µM.
Regarding `CC1(C)C(N)=N[C@]2(C)c3cc(NC(=O)c4ncc(Cl)cc4Cl)ccc3OCC[C@H]2S1(=O)=O` [Example 24, N-((4aR,11bR)-2-amino-3,3,11b-trimethyl-4,4-dioxido-4a,5,6,11b-tetrahydro-3H-[1]benzoxepino[4,5-b][1,4]thiazin-10-yl)-3,5-dichloro-2-pyridinecarboxamide], the IC50 in experiment [1] is 0.001 µM; at Cathepsin D (Cat D) (read-out: CatD IC50) it was 969 µM; on Cathepsin D (Cat D) (setting [3]), above 800 µM; in experiment [2], 0.003 µM.
Turning to `CC1(C)C(N)=N[C@]2(C)c3cc(NC(=O)c4ncc(C(F)(F)F)cc4Cl)ccc3OCC[C@H]2S1(=O)=O` [Example 25, N-((4aR,11bR)-2-amino-3,3,11b-trimethyl-4,4-dioxido-4a,5,6,11b-tetrahydro-3H-[1]benzoxepino[4,5-b][1,4]thiazin-10-yl)-3-chloro-5-(trifluoromethyl)-2-pyridinecarboxamide], the IC50 in experiment [1] is 0.002 µM; at Cathepsin D (Cat D) (read-out: CatD IC50) it was 3530 µM; at Cathepsin D (Cat D) (setting [3]), above 1200 µM; in experiment [2], 0.007 µM.
In the case of `Cc1cc(Cl)cnc1C(=O)Nc1ccc2c(c1)[C@@]1(C)N=C(N)C(C)(C)S(=O)(=O)[C@@]1(C)CCO2` [Example 26, N-((4aS,11bR)-2-amino-3,3,4a,11b-tetramethyl-4,4-dioxido-4a,5,6,11b-tetrahydro-3H-[1]benzoxepino[4,5-b][1,4]thiazin-10-yl)-5-chloro-3-methyl-2-pyridinecarboxamide], the IC50 in experiment [1] was 0.001 µM; on Cathepsin D (Cat D) (read-out: CatD IC50), 995 µM; on Cathepsin D (Cat D) (setting [3]) it was above 800 µM; in experiment [2], 0.003 µM.
Take `Cc1cc(Cl)cnc1C(=O)Nc1ccc2c(c1)[C@@]1(C)N=C(N)C(C)(C)S(=O)(=O)[C@]1(C)CCO2` [Example 27, N-((4aR,11bR)-2-amino-3,3,4a,11b-tetramethyl-4,4-dioxido-4a,5,6,11b-tetrahydro-3H-[1]benzoxepino[4,5-b][1,4]thiazin-10-yl)-5-chloro-3-methyl-2-pyridinecarboxamide]: the IC50 in experiment [1] stood at 0.264 µM; on Cathepsin D (Cat D) (read-out: CatD IC50), 553 µM; in experiment [2], 0.15 µM.
Consider `Cc1c(C(=O)Nc2ccc3c(c2)[C@@]2(C)N=C(N)C(C)(C)S(=O)(=O)[C@@H]2CCO3)nc2ccc(Cl)cn12` [Example 28, N-((4aR,11bR)-2-amino-3,3,11b-trimethyl-4,4-dioxido-4a,5,6,11b-tetrahydro-3H-[1]benzoxepino[4,5-b][1,4]thiazin-10-yl)-6-chloro-3-methylimidazo[1,2-a]pyridine-2-carboxamide], for which the IC50 is 0.008 µM in experiment [1], above 400 µM on Cathepsin D (Cat D) (read-out: CatD IC50) and 0.028 µM in experiment [2].
Regarding `CCc1ccc(C(=O)Nc2ccc3c(c2)[C@@]2(C)N=C(N)C(C)(C)S(=O)(=O)[C@@H]2CCO3)nc1` [Example 29, N-((4aR,11bR)-2-amino-3,3,11b-trimethyl-4,4-dioxido-4a,5,6,11b-tetrahydro-3H-[1]benzoxepino[4,5-b][1,4]thiazin-10-yl)-5-ethyl-2-pyridinecarboxamide], the IC50 in experiment [1] was 0.01 µM; on Cathepsin D (Cat D) (read-out: CatD IC50), 1370 µM; on Cathepsin D (Cat D) (setting [3]) it was above 1200 µM; in experiment [2], 0.038 µM.
Consider `CC1(C)C(N)=N[C@]2(C)c3cc(NC(=O)c4cc5ccccc5cn4)ccc3OCC[C@H]2S1(=O)=O` [Example 30, N-((4aR,11bR)-2-amino-3,3,11b-trimethyl-4,4-dioxido-4a,5,6,11b-tetrahydro-3H-[1]benzoxepino[4,5-b][1,4]thiazin-10-yl)-3-isoquinolinecarboxamide], for which the IC50 in experiment [1] is 0.058 µM; on Cathepsin D (Cat D) (read-out: CatD IC50), 1080 µM; at Cathepsin D (Cat D) (setting [3]), above 1200 µM; in experiment [2], 0.084 µM.
For the compound `CCc1cc(Cl)cnc1C(=O)Nc1ccc2c(c1)[C@@]1(C)N=C(N)C(C)(C)S(=O)(=O)[C@@H]1CCO2` [Example 31, N-((4aR,11bR)-2-amino-3,3,11b-trimethyl-4,4-dioxido-4a,5,6,11b-tetrahydro-3H-benzo[6,7]oxepino[4,5-b][1,4]thiazin-10-yl)-5-chloro-3-ethylpicolinamide], the IC50 in experiment [1] turned out to be 0.016 µM; at Cathepsin D (Cat D) (read-out: CatD IC50), 226 µM; in experiment [2] it was 0.015 µM.

The record behind these values is US9309263B2, “Fused multi-cyclic sulfone compounds as inhibitors of beta-secretase and methods of use thereof” (AMGEN INC., priority 2013, dated 2016).
